We go through 21 compounds from patent US20240150377A1, “MODULATORS OF CYSTIC FIBROSIS TRANSMEMBRANE CONDUCTANCE REGULATOR” (VERTEX PHARMACEUTICALS INCORPORATED, priority 2020, published 2024).

Like-named read-outs stand apart in the source and are kept apart here.

Holding throughout (assay type): cell-based
In assay [1] the target is CFTR (Homo sapiens, UniProt P13569). Kind of assay: Membrane potential dye, Enteroid Assay A. The note with it: for Ent. A Max Activity: chloride transport as % of triple combination control (Enteroid Assay A); for EC50: human enteroid cells, 18-24 hours, acute 10 μM forskolin and 300 nM ivacaftor, read-out: Ent. A EC50. Here is the method:
Base medium (ADF+++) consisted of Advanced DMEM/Ham's F12, 2 mM Glutamax, 10 mM HEPES, […] penicillin/streptomycin.
Intestinal enteroid maintenance medium (IEMM) consisted of ADF+++, 1× B27 supplement, 1× N2 supplement, 1.25 mM N-acetyl cysteine, 10 mM Nicotinamide, 50 ng/mL hEGF, 10 nM Gastrin, 1 μg/mL hR-spondin-1, 100 ng/mL hNoggin, TGF-b type 1 inhibitor A-83-01, 100 μg/mL Primocin, 10 μM P38 MAPK inhibitor SB202190.
Bath 1 Buffer consisted of 1 mM MgCl2, 160 mM NaCl, 4.5 mM KCl, 10 mM HEPES, 10 mM Glucose, 2 mM CaCl2).
Chloride Free Buffer consisted of 1 mM Magnesium Gluconate, 2 mM Calcium Gluconate, 4.5 mM Potassium Gluconate, 160 mM Sodium Gluconate, 10 mM HEPES, 10 mM Glucose.
BathI Dye Solution consisted of Bath 1 Buffer, 0.04% Pluronic F127, 20 μM Methyl Oxonol, 30 μM CaCCinh-A01, 30 μM Chicago Sky Blue.
Chloride Free Dye Solution consisted of Chloride Free Buffer, 0.04% Pluronic F127, 20 μM Methyl Oxonol, 30 μM CaCCinh-A01, 30 μM Chicago Sky Blue.
Chloride Free Dye Stimulation Solution consisted of Chloride Free Dye Solution, 10 μM forskolin, 100 μM IBMX, and 300 nM Compound III.
Human intestinal epithelial enteroid cells were obtained from the Hubrecht Institute for Developmental Biology and Stem Cell Research, Utrecht, The Netherlands and expanded in T-Flasks as previously described (Dekkers J F, Wiegerinck C L, de Jonge H R, Bronsveld I, Janssens H M, de Winter-de Groot K M, Brandsma A M, de Jong N W M, Bijvelds M J C, Scholte B J, Nieuwenhuis E E S, van den Brink S, Clevers H, van der Ent C K, Middendorp S and M Beekman J M. A functional CFTR assay using primary cystic fibrosis intestinal organoids. Nat Med. 2013 July;19(7):939-45.).
3. Enteroid Cell Harvesting and Seeding
Cells were recovered in cell recovery solution, collected by centrifugation at 650 rpm for 5 min at 4° C., resuspended in TrypLE and incubated for 5 min at 37° C. Cells were then collected by centrifugation at 650 rpm for 5 min at 4° C. and resuspended in IEMM containing 10 μM ROCK inhibitor (RI). The cell suspension was passed through a 40 μm cell strainer and resuspended at 1×10^6 cells/mL in IEMM containing 10 μM RI. Cells were seeded at 5000 cells/well into multi-well plates and incubated for overnight at 37° C., 95% humidity and 5% CO2 prior to assay.
4. Membrane Potential Dye, Enteroid Assay A
Enteroid cells were incubated with test compound in IEMM for 18-24 hours at 37° C., 95% humidity and 5% CO2. […] Briefly, cells were washed 5 times in Bath 1 Buffer. Bath 1 Dye Solution was added, and the cells were incubated for 25 min at room temperature. Following dye incubation, cells were washed 3 times in Chloride Free Dye Solution. Chloride transport was initiated by addition of Chloride Free Dye Stimulation Solution and the fluorescence signal was read for 15 min. […] Chloride transport was then expressed as a percentage of the chloride transport following treatment with 3 μM N-[(6-amino-2-pyridyl)sulfonyl]-6-(3-fluoro-5-isobutoxy-phenyl)-2-[(4S)-2,2,4-trimethylpyrrolidin-1-yl]pyridine-3-carboxamide, 3 μM (R)-1-(2,2-difluorobenzo[d][1,3]dioxol-5-yl)-N-(1-(2,3-dihydroxypropyl)-6-fluoro-2-(1-hydroxy-2-methylpropan-2-yl)-1H-indol-5-yl)cyclopropanecarboxamide and 300 nM acute N-[2,4-bis(1,1-dimethylethyl)-5-hydroxyphenyl]-1,4-dihydro-4-oxoquinoline-3-carboxamide triple combination control (% Activity).

Assay [2] deals with T1, CFTR (Homo sapiens, UniProt P13569, DEL508-508).
T1 construct: endogenous in cells; host or cells: primary human bronchial epithelial cells from CF subjects (F508del/MF-HBE), differentiated at air-liquid interface
T1 sequence (P13569 with tags, fused parts or gaps DEL508-508): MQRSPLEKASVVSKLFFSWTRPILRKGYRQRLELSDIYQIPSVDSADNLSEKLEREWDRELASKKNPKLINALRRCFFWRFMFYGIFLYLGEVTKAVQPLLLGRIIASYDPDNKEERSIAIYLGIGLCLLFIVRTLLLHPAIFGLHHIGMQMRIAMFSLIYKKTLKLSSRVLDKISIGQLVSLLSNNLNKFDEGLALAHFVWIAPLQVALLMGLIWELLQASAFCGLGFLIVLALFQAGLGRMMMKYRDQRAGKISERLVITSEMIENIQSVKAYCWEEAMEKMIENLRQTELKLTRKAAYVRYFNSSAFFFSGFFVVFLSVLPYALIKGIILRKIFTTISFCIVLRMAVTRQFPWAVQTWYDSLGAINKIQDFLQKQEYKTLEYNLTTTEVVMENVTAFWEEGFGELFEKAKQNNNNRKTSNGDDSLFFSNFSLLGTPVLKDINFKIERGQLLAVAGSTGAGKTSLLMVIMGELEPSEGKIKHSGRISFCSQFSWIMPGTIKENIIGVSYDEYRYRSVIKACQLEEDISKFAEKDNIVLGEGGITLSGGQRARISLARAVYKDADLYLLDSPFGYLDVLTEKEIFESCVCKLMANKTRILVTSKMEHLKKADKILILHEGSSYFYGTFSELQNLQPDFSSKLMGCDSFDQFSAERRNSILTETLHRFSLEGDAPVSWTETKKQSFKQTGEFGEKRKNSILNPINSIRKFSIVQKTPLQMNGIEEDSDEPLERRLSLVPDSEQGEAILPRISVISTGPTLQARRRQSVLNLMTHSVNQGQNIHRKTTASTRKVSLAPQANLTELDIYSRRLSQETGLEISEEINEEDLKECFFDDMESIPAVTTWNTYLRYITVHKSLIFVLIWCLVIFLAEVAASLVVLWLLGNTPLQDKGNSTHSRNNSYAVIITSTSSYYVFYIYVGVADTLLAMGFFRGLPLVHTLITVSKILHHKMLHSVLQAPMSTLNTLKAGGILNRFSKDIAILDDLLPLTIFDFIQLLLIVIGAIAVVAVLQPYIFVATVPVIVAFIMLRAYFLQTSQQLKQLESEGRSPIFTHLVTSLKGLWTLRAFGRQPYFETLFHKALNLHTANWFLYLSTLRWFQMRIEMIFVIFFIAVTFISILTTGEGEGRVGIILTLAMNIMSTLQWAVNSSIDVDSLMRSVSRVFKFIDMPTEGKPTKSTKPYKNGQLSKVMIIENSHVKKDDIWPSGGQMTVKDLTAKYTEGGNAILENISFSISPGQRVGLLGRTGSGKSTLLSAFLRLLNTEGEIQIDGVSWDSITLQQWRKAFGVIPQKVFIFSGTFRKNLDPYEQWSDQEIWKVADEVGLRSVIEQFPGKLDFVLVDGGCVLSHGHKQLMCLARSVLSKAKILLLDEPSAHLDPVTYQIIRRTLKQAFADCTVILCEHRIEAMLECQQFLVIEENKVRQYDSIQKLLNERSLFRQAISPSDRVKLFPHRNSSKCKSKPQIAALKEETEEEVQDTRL
Kind of assay: HBE2 assay: Ussing chamber assay of CFTR-mediated short-circuit currents. The following applies: F508del/MF-HBE cells, with 44 nM potentiator, 18-24 hours, 20% human serum; for Emax: read-out: HBE2 Max activity (%). Summed up:
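F508del/MF-HBE cultured >14 days at air-liquid interface, mounted in Ussing chambers; transepithelial short-circuit current recorded under voltage clamp (Vhold=0 mV) at 37 °C. CFTR-mediated ISC (μA/cm^2) taken as peak forskolin response relative to steady-state current after inhibition; corrector activity assessed this way.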

Assay [3] concerns the target T1, CFTR. As to the kind of experiment: HBE assay: Ussing chamber assay of CFTR-mediated short-circuit currents. The following applies: for Emax: read-out: HBE Max activity (%); for activation at 10 µM: read-out: HBE Activity at 10 μM (%). Summed up: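 CFTR-mediated Isc (μA/cm²) equals the peak response to apical 20 μM forskolin minus the residual after a 20 μM each BPO/GlyH-101/CFTR inhibitor 172 cocktail, recorded in Ussing chambers at Vhold 0 mV, 37 °C, pH 7.4, with 30 μM apical amiloride. Cells were F508del/MF HBE cultures preincubated 18-24 h with corrector (concentration range or 10 μM) plus 1 μM ivacaftor in 20% human serum.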

Sequence of CFTR (Homo sapiens, UniProt P13569) (P13569 with tags, fused parts or gaps DEL508-508): as above

One may read the EC50 as the midpoint of the concentration-response curve. With `Cc1cccc(C)c1-c1cc2nc(n1)NS(=O)(=O)c1cccc(c1)C(=O)N(Cc1ccccc1)C(C(=O)NC1CCCCC1)CO2` (centres unmarked) [Compound 515], at CFTR [1] (Table 6), the “Ent. A Max Activity” value was “+ (+ is <30%)” and the EC50 is 1000 to 3000 nM.
With `Cc1cccc(C)c1-c1cc2nc(n1)NS(=O)(=O)c1cccc(c1)C(=O)N(C)CC(c1ccc(C3=CCOCC3)cc1)O2` (centres unmarked) [Compound 670], at CFTR [1] (Table 7), the “Ent. A Max Activity” value was “++ (++ is 30-60%)” and the EC50 was in the range of 1000 to 3000 nM.
The corresponding values for `Cc1cccc(C)c1-c1cc2nc(n1)NS(=O)(=O)c1cccc(c1)C(=O)N(CCC1CCOCC1)[C@H](C)CO2` [Compound 988] are “+ (+ is <30%)” and 3000 to 30000 nM.
`COC[C@@H](C)N(C)c1cncc(CN2C(=O)c3cccc(c3)S(=O)(=O)Nc3nc(cc(-c4c(C)cccc4C)n3)OC[C@H]2CC(C)(C)C)n1` [Compound 1493]: the “HBE2 Activity at 3 μM (%)” value on CFTR [2] is recorded as “+++ (+++ is >60+)”. The EC50 at CFTR [3] (HBE assay, read-out: HBE EC50) was < 1 µM. The Emax on CFTR [3] (HBE assay) is > 60%.
For the compound `Cc1cccc(C)c1-c1cc2nc(n1)NS(=O)(=O)c1cccc(c1)C(=O)N(Cc1cncc(N3CCC[C@H]3C3CC3)n1)[C@H](CC(C)(C)C)CO2` [Compound 1495], at CFTR [2], the “HBE2 Activity at 3 μM (%)” value was “+++ (+++ is >60+)”. Further, on CFTR [3] (HBE EC50 (μM), HBE assay), the EC50 was < 1 µM. The Emax at CFTR [3] is > 60%.
`Cc1cccc(C)c1-c1cc2nc(n1)NS(=O)(=O)c1cccc(c1)C(=O)N(Cc1cncc(N(C)CC3CC3)n1)[C@H](CC(C)(C)C)CO2` [Compound 1507]: on CFTR [2], the “HBE2 Activity at 3 μM (%)” value is given as “+++ (+++ is >60+)”. Moreover, the activation at 10 µM at CFTR [3] (HBE assay, 10 μM) was > 60%.
`Cc1cccc(C)c1-c1cc2nc(n1)NS(=O)(=O)c1cccc(c1)C(=O)N(Cc1ncc(N3CC(C)(C)C3)cn1)[C@H](CC(C)(C)C(F)(F)F)CO2` [Compound 1520]: the “HBE2 Activity at 3 μM (%)” value on CFTR [2] is on record as “+++ (+++ is >60+)”. Moreover, on CFTR [3] (HBE assay, 10 μM), the activation at 10 µM was > 60%.
For the compound `Cc1cccc(C)c1-c1cc2nc(n1)NS(=O)(=O)c1cccc(c1)C(=O)N(Cc1ccnc(N(C)C3CC4(CC4)C3)n1)[C@H](CC(C)(C)C)CO2` [Compound 1448], at CFTR [2], the EC50 was < 1000 nM and the Emax was > 60%. Moreover, the activation at 10 µM at CFTR [3] (HBE assay, 10 μM) was > 60%.
On to `Cc1cccc(C)c1-c1cc2nc(n1)NS(=O)(=O)c1cccc(c1)C(=O)N(Cc1ncc(N(C)C(=O)OC(C)C)cn1)[C@H](CC(C)(C)C)CO2` [Compound 1518], for which, at CFTR [2], the Emax is > 60%. Besides, the activation at 10 µM on CFTR [3] (HBE assay, 10 μM) was > 60%.
Take `Cc1cccc(C)c1-c1cc2nc(n1)NS(=O)(=O)c1cccc(c1)C(=O)N(Cc1cncc(N3CC[C@H]3C)n1)[C@H](CC(C)(C)C)CO2` [Compound 1512]: at CFTR [2], the EC50 was < 1000 nM and the Emax is > 60%. Further, the activation at 10 µM on CFTR [3] was > 60%.
Consider `CCCOc1cnc(CN2C(=O)c3cccc(c3)S(=O)(=O)Nc3nc(cc(-c4c(C)cccc4C)n3)OC[C@H]2CC2CCC2)nc1` [Compound 1522], for which, at CFTR [2], the “HBE2 Activity at 3 μM (%)” value was “+++ (+++ is >60+)”, the EC50 was < 1000 nM and the Emax was > 60%. In addition, the activation at 10 µM at CFTR [3] (HBE assay, 10 μM) is > 60%.
For `CCCOc1cnc(CN2C(=O)c3cccc(c3)S(=O)(=O)Nc3nc(cc(-c4c(C)cccc4C)n3)OC[C@H]2CC(C)C)nc1` [Compound 1523], on CFTR [2], the “HBE2 Activity at 3 μM (%)” value is given as “+++ (+++ is >60+)”. The activation at 10 µM at CFTR [3] (HBE assay, 10 μM) is > 60%.
For `CCC(C)Oc1cnc(CN2C(=O)c3cccc(c3)S(=O)(=O)Nc3nc(cc(-c4c(C)cccc4C)n3)OC[C@H]2CCC(C)C)nc1` (some centres unmarked) [Compound 1528], in that order: “+++ (+++ is >60+)” and > 60%.
`CC[C@@H]1CCCN1c1cncc(CN2C(=O)c3cccc(c3)S(=O)(=O)Nc3nc(cc(-c4c(C)cccc4C)n3)OC[C@H]2CC(C)(C)C)n1` [Compound 1496]: the “HBE2 Activity at 3 μM (%)” value at CFTR [2] is recorded as “+++ (+++ is >60+)”. Besides, the EC50 at CFTR [3] (HBE assay, read-out: HBE EC50) was < 1 µM. The Emax on CFTR [3] (HBE assay) is > 60%.
In the case of `Cc1cccc(C)c1-c1cc2nc(n1)NS(=O)(=O)c1cccc(c1)C(=O)N(Cc1cncc(N(C)CC(C)C)n1)[C@H](CC(C)(C)C)CO2` [Compound 1519], on CFTR [2], the EC50 was < 1000 nM and the Emax is > 60%. The activation at 10 µM at CFTR [3] (HBE assay, 10 μM) was > 60%.
As for `CC[C@H](C)Oc1cnc(CN2C(=O)c3cccc(c3)S(=O)(=O)Nc3nc(cc(-c4c(C)cccc4C)n3)OC[C@H]2CC2(C)CC2)nc1` [Compound 1546], the “HBE2 Activity at 3 μM (%)” value at CFTR [2] is listed as “+++ (+++ is >60+)”. Moreover, the activation at 10 µM at CFTR [3] (HBE assay, 10 μM) is > 60%.
The corresponding values for `COC(=O)N(C)c1cnc(CN2C(=O)c3cccc(c3)S(=O)(=O)Nc3nc(cc(-c4c(C)cccc4C)n3)OC[C@H]2CC(C)(C)C)nc1` [Compound 1517] are “+++ (+++ is >60+)” and > 60%.
For `Cc1cccc(C)c1-c1cc2nc(n1)NS(=O)(=O)c1cccc(c1)C(=O)N(Cc1ncc(N3CC(C)(C)C3)cn1)[C@H](CC1(C(F)(F)F)CC1)CO2` [Compound 1529], in that order: “+++ (+++ is >60+)” and > 60%.
For `Cc1cccc(C)c1-c1cc2nc(n1)NS(=O)(=O)c1cccc(c1)C(=O)N(Cc1ccc3cc(C4CC4)n(C)c3n1)[C@H](CC(C)(C)C)CO2` [Compound 1304, (11R)-12-[(2-Cyclopropyl-1-methyl-pyrrolo[2,3-b]pyridin-6-yl)methyl]-6-(2,6-dimethylphenyl)-11-(2,2-dimethylpropyl)-2,2-dioxo-9-oxa-2λ^6-thia-3,5,12,19-tetrazatricyclo[12.3.1.14,8]nonadeca-1(18),4(19),5,7,14,16-hexaen-13-one], in that order: “+++ (+++ is >60+)” and > 60%.
Regarding `Cc1cccc(C)c1-c1cc2nc(n1)NS(=O)(=O)c1cccc(c1)C(=O)N(Cc1cncc(N3CCCC[C@H]3C)n1)[C@H](CC(C)(C)C)CO2` [Compound 1506], at CFTR [2], the EC50 is < 1000 nM and the Emax is > 60%. Besides, the activation at 10 µM on CFTR [3] was > 60%.
In the case of `COCC1(CN(C)c2cncc(CN3C(=O)c4cccc(c4)S(=O)(=O)Nc4nc(cc(-c5c(C)cccc5C)n4)OC[C@H]3CC(C)(C)C)n2)CC1` [Compound 1492], on CFTR [2], the “HBE2 Activity at 3 μM (%)” value is “+++ (+++ is >60+)”. In addition, at CFTR [3] (HBE assay, 10 μM), the activation at 10 µM was > 60%. Besides, the EC50 on CFTR [3] (HBE assay, read-out: HBE EC50) was < 1 µM. Also, the Emax at CFTR [3] (HBE assay) was > 60%.
